The values below are quoted from earlier work in patent US20030166469A1, “Crop harvesting method using a 1,2,4-triazol-1-ylpropanoic acid and derivatives” (priority 2001, published 2003).

This data set deals with cotton. Conditions: tested alone, no adjuvant; data of U.S. Pat. No. 6,444,613.

As to `CCOC(=O)C(Cl)Cc1cc(-n2nc(C)n(C(F)F)c2=O)c(F)cc1Cl` (stereo not drawn) [Compound Ic, ethyl α,2-dichloro-5-[4-(difluoromethyl)-4,5-dihydro-3-methyl-5-oxo-1H-1,2,4-triazol-1-yl]-4-fluoropropanoate], the defoliation of cotton is at most 29%.
